The values that follow come from patent US5721238A, “2,8-disubstituted quinazolinones” (Bayer Aktiengesellschaft, priority 1995, dated 1998).

Holding throughout (type): biochemical
In one test the test system is PDE I. Briefly: Inhibition of the phosphodiesterases in vitro: PDE I (Ca-calmodulin-stimulatable). The following applies: Ca-calmodulin-stimulatable PDE I from porcine aorta or porcine brain; nucleotide 10^-6 mol/l; 1 μM CaCl2, 0.1 μM calmodulin; pH 7.5; 30 minutes. The method, then: (§1) The cGMP-stimulatable PDE II, the cGMP-inhibitable PDE III and the cAMP-specific PDE IV were isolated from either porcine or bovine myocardia. The Ca-calmodulin-stimulatable PDE I was isolated from the porcine aorta or porcine brain. The cGMP-specific PDE V was obtained from the porcine intestine, porcine aorta and/or human blood platelets. Purification was carried out by anion exchange chromatography on MonoQ^R Pharmacia, essentially by the method of M. Hoey and Miles D. Houslay, Biochemical Pharmacology, Volume 40, 193-202 (1990).
(§2) The enzyme activity is determined in a test batch of 100 μl in 20 mM Tris/HCl buffer of pH 7.5 which contains 5 mM MgCl2, 0.1 mg/ml of bovine serum albumin and either 800 Bq of ^3 HcAMP or ^3 HcGMP. The final concentration of the corresponding nucleotide is 10^-6 mol/l. The reaction is started by addition of the enzyme and the amount of enzyme is chosen such that about 50% of the substrate is converted during the incubation time of 30 minutes. To test the cGMP-stimulatable PDE II, ^3 HcAMP is used as the substrate and 10^-6 mol/l of non-labelled cGMP is added to the batch. To test the Ca-calmodulin-dependent PDE I, 1 μM CaCl2 and 0.1 μM calmodulin are also added to the reaction batch. The reaction is stopped by addition of 100 μl of acetonitrile which contains 1 mM cAMP and 1 mM AMP. 100 μl of the reaction batch are separated on the HPLC and the cleavage products are determined quantitatively "online" using a flow-through scintillation counter. The substance concentration at which the rate of reaction is reduced by 50% is measured.

In the next test the test system is PDE V. Briefly: Inhibition of the phosphodiesterases in vitro: PDE V (cGMP-specific). The following applies: cGMP-specific PDE V from porcine intestine, porcine aorta and/or human blood platelets; nucleotide 10^-6 mol/l; pH 7.5; 30 minutes. On the procedure:
as §1, §2

Another test has as its system PDE II. Briefly: Inhibition of the phosphodiesterases in vitro: PDE II (cGMP-stimulatable). The following applies: cGMP-stimulatable PDE II from porcine or bovine myocardia; 3HcAMP substrate 10^-6 mol/l, 10^-6 mol/l non-labelled cGMP; pH 7.5; 30 minutes. On the procedure: as §1, §2

Molecules are shown by their SMILES.

`CCCCCC(O)C(OC)c1cccc2c(=O)[nH]c(-c3ccccc3OCCC)nc12` (stereo not drawn) [Example 14, 2-(2-n-Propoxyphenyl)-8-(1-methoxy-2-hydroxy-1-heptyl)-quinazolin-4(3H)-one]: the IC50 in the test on PDE I was determined as 5 µM; in the test on PDE V, 3 µM; in the test on PDE II it was 5 µM.

In the case of `CCCOc1ccccc1-c1nc2c(C(OC)C(O)Cc3ccccc3)cccc2c(=O)[nH]1` (stereo not drawn) [Example 15, 2-(2-n-Propoxyphenyl)-8-(3-phenyl-1-methoxy-2-hydroxy-1-propyl)-quinazolin-4(3H)-one], the figures for the IC50 in the test with PDE I and with PDE II were 3 µM and 5 µM, respectively.

For `CCCOc1ccccc1-c1nc2c(C(OC)C(O)CCc3ccccc3)cccc2c(=O)[nH]1` (stereo not drawn) [Example 16, 2-(2-n-Propoxyphenyl)-8-(4-phenyl-1-methoxy-2-hydroxy-1-butyl)-quinazolin-4(3H)-one], the IC50 in the test on PDE V and in the test on PDE II was 5 µM in each case.

As to `CCCCCC(O)C(CC)c1cccc2c(=O)[nH]c(-c3ccccc3OCCC)nc12` (stereo not drawn) [Example 20, 2-(2-n-Propoxyphenyl)-8-(4-hydroxy-3-nonyl)-quinazolin-4(3H)-one], the figures for the IC50 with PDE I, with PDE V and in the test on PDE II were 10 µM, 5 µM and 2 µM, respectively.

On to `CCCOc1ccc(S(=O)(=O)N2CCOCC2)cc1-c1nc2c(C(C)CCCc3ccccc3)cccc2c(=O)[nH]1` (stereo not drawn) [Example 29, 2-(2-n-Propoxy-5-morpholinosulphonylphenyl)-8-(5-phenyl-2-pentyl)-quinazolin-4-(3H)-one], for which the IC50 with PDE V was determined as 1 µM; with PDE II, 0.5 µM.

One may read the IC50 as the midpoint of a concentration-inhibition curve. A high value points to weaker potency.
